According to US6723897B2, “Methods for controlling gibberellin levels” (Monsanto Technology, LLC, priority 1998, dated 2004):

Experiments:
[1] = tested on: wild-type soybean line A4922; assay: Field trial of seed coating application rates, wild-type soybean
Experimental: GA3, GA3-3-acetate, GA5, GA9, and GA12 are evaluated in further field trials. […] The objectives of these tests are: 1) to determine if seed coatings, as compared to imbibition, of GA compounds facilitate rescue of constitutively GA-deficient transgenic dwarf soybeans (transgenic lines 719−2 plus 719+17) without causing elongation of wild-type soybeans (line A4922), and 2) to determine the seed treatment rate ranges for each of the selected GA compounds that would provide rescue of constitutively GA-deficient transgenic dwarf soybeans (transgenic lines 719−2 plus 719+17) without causing elongation of wild-type soybeans (line A4922).
Seeds are treated with GA3, GA5, GA9, GA12, and GA3-3-acetate at rates of 0, 0.1, 1, 10, and 100 μg/seed. These GA compounds are applied to the seeds using a Hege 11 seed treater (Hans-Ulrich Hege GmbH & Co., Waldenburg, Germany); 100% acetone is used as the carrier solvent. The amount of liquid introduced into the seed treater is six fluid ounces/100 lbs seed rate. In addition, GA12 is tested at 50 μg/seed. The untreated control (UTC) consisted of dry, untreated seeds. Seeds of constitutively GA-deficient transgenic dwarf soybean line 719 and wild-type A4922 are sown in both light and heavy soil. The planting depth is 0.5 to 1 inch (1.27 to 2.54 cm); watering is via drip irrigation. The experiment is carried out in three repetitions, using 25 seeds/plot (one five foot (152.4 cm) long row) for line 719, and 75 seeds/plot (two eight foot (243.8 cm) rows) for line A4922. Observations included total emergence, number of dwarfs not rescued, uniformity in plant height, average plant height, visual notes, and digital photos.
In all the experiments reported in Tables 17-24, treatments are replicated three times in a randomized block design. Data are analyzed using LSD (least significant difference) 0.05 probability using the PRM 5.0 Statistical Analysis Program (SAS Institute, North Carolina).

[2] = tested on: non-transgenic soybean line A4922; assay: Field trial of seed coatings under soil compaction / different soils, wild-type soybean; type: in vivo, Glycine max; settings: for Count (emergence) / Height (total plant height): A4922; for plant height dose/response in wild-type line A4922 (FIG. 40): ten days after planting, compacted soil
Experimental: The second trial (data reported in Tables 22-24) tested the precursors under conditions of soil compaction.
As noted above, the second trial tested the noted precursors under conditions of soil compaction. These experiments are performed in the same manner as in the first trial, except that the soil is compacted with an all-terrain vehicle.
“Height” equals total plant height in cm.

[3] = tested on: AX5/antisense CPScc soybean line 46 (R2); assay: Hilum seed treatment of epicotyl-intensive GA-deficient soybean, seedling height (FIG. 42); type: in vivo, Glycine max; settings: 8 DAP
Experimental: These studies are performed on soybean plants engineered to express their GA-deficient phenotype throughout the life cycle via the use of the constitutive FMV promoter (line 719, FMV/antisense CPScc). In contrast to the constitutive FMV promoter, the peak activity of the AX5 promoter is developmentally restricted to the soybean seedling axis (epicotyl) three to five days after the start of imbibition, with limited expression beyond the seedling stage of development. Soybean lines transformed with the […] cassette therefore display an epicotyl-intensive dwarf phenotype. In these lines, inhibition of the hypocotyl is modest; most of the total height reduction in these plants is due to shortening of the epicotyl. Rescue of […] soybean plants therefore presents different technical challenges from those required for rescue of constitutively GA-deficient transgenic dwarf soybean lines containing the […] construct. […] Seed from both lines is produced from greenhouse-grown plants. […] If multiple applications are made to seeds, the previous application is allowed to dry before a subsequent application is made. […] (29° C.) day and 75° F. night (24° C.). Pots are watered as necessary by overhead hand watering. Hypocotyl and epicotyl measurements are made for each plant at various stages of plant growth. […] The results are shown in FIG. 42, where the error bar represents +/-two times the standard error of the mean (n=12-15). […] The upper dashed horizontal line represents the total height of untreated wild-type […] soybeans. Measurements are made 8 days after planting.

[4] = Heavy soil - Loose, target rate 1.0 μg/seed, Table 23
[5] = Heavy soil - Loose, target rate 10.0 μg/seed, Table 23
[6] = Heavy soil - Loose, target rate 40.0 μg/seed, Table 23
[7] = Heavy soil - compacted, target rate 1.0 μg/seed, Table 23
[8] = Heavy soil - compacted, target rate 10.0 μg/seed, Table 23
[9] = Heavy soil - compacted, target rate 40.0 μg/seed, Table 23
[10] = Heavy soil - loose, target rate 40.0 μg/seed, Table 22
[11] = Light soil - Compacted, target rate 40.0 μg/seed, Table 22
[12] = Light soil - Loose, target rate 1.0 μg/seed, Table 24
[13] = Light soil - Loose, target rate 10.0 μg/seed, Table 24
[14] = Light soil - Loose, target rate 40.0 μg/seed, Table 24
[15] = Light soil - compacted, target rate 1.0 μg/seed, Table 24
[16] = Light soil - compacted, target rate 10.0 μg/seed, Table 24
[17] = Light soil - compacted, target rate 40.0 μg/seed, Table 24
[18] = Heavy soil - Loose, target rate 0.5 μg/seed, Table 23
[19] = Heavy soil - Loose, target rate 2.0 μg/seed, Table 23
[20] = Heavy soil - Loose, target rate 4.0 μg/seed, Table 23
[21] = Heavy soil - compacted, target rate 0.5 μg/seed, Table 23
[22] = Heavy soil - compacted, target rate 2.0 μg/seed, Table 23
[23] = Heavy soil - compacted, target rate 4.0 μg/seed, Table 23
[24] = Heavy soil - loose, target rate 0.5 μg/seed, Table 22
[25] = Heavy soil - loose, target rate 2.0 μg/seed, Table 22
[26] = Light soil - Compacted, target rate 0.5 μg/seed, Table 22
[27] = Light soil - Compacted, target rate 2.0 μg/seed, Table 22
[28] = Light soil - Loose, target rate 0.5 μg/seed, Table 24
[29] = Light soil - Loose, target rate 2.0 μg/seed, Table 24
[30] = Light soil - Loose, target rate 4.0 μg/seed, Table 24
[31] = Light soil - compacted, target rate 0.5 μg/seed, Table 24
[32] = Light soil - compacted, target rate 2.0 μg/seed, Table 24
[33] = Light soil - compacted, target rate 4.0 μg/seed, Table 24

## C=C1C[C@]23C[C@H]1CC[C@H]2[C@]1(C)CCC[C@@](C)(C(=O)O)[C@H]1[C@@H]3C(=O)O [GA12]
[1]; 0.1 μg compound per seed
  A4922 Height, cm, Heavy soil: 5.3 fg·cm
  A4922 Height, cm, Light soil: 5.7 f-i cm
  No. A4922 Emerged, Heavy soil: 24.3 g·days
  No. A4922 Emerged, Light soil: 45.7 c-h
[1]; 1 μg compound per seed
  A4922 Height, cm, Heavy soil: 5.7 efg cm
  A4922 Height, cm, Light soil: 5.0 g-i cm
  No. A4922 Emerged, Heavy soil: 48.0 ab
  No. A4922 Emerged, Light soil: 55.7 ab
[1]; 10 μg compound per seed
  A4922 Height, cm, Heavy soil: 5.0 fgh cm
  A4922 Height, cm, Light soil: 3.7 hij cm
  No. A4922 Emerged, Heavy soil: 19.0 fg
  No. A4922 Emerged, Light soil: 46.3 c-g
[1]; 50 μg compound per seed
  A4922 Height, cm, Heavy soil: 2.7 hi cm
  A4922 Height, cm, Light soil: 3.0 ij cm
  No. A4922 Emerged, Heavy soil: 40.0 bcd
  No. A4922 Emerged, Light soil: 51.3 bcd
[1]; 100 μg compound per seed
  A4922 Height, cm, Heavy soil: 2.3 i cm
  A4922 Height, cm, Light soil: 2.7 J·cm
  No. A4922 Emerged, Heavy soil: 38.7 bcd
  No. A4922 Emerged, Light soil: 53.0 bc
[2]; [4]
  Count (emergence): 36.0 a
  Height (total plant height): 4.7e-15 g·cm
[2]; [5]
  Count (emergence): 26.7 b-c
  Height (total plant height): 4.0 g·cm
[2]; [6]
  Count (emergence): 33.0 ab
  Height (total plant height): 4.3 g·cm
[2]; [7]
  Count (emergence): 17.0 a
  Height (total plant height): 4.3 cde cm
[2]; [8]
  Count (emergence): 12.3 abc
  Height (total plant height): 3.7 e cm
[2]; [9]
  Count (emergence): 13.7 abc
  Height (total plant height): 4.0 de cm
[2]; [10]
  Count (emergence): 33 ab
  Height (total plant height): 4.3 g·cm
[2]; [11]
  Count (emergence): 41 a
  Height (total plant height): 4.3 g·cm
[2]; [12]
  Count (emergence): 43.7 abc
  Height (total plant height): 4.0 hi cm
[2]; [13]
  Count (emergence): 47.7 a
  Height (total plant height): 3.7 i cm
[2]; [14]
  Count (emergence): 44.0 abc
  Height (total plant height): 4.0 hi cm
[2]; [15]
  Count (emergence): 39.3 ab
  Height (total plant height): 4.3 g·cm
[2]; [16]
  Count (emergence): 41.7 a
  Height (total plant height): 4.0 g·cm
[2]; [17]
  Count (emergence): 41.0 a
  Height (total plant height): 4.3 g·cm
[2]
  plant height dose/response in wild-type line A4922 (FIG. 40): inhibited plant height
[3]
  effect on line 46 total height: reduced plant height
[3]; concentrations up to 40 μg/seed
  line 46 seedling height: did not increase line 46 seedling height

## C=C1C[C@]23C[C@@]1(O)CC[C@H]2[C@@]12CC=C[C@@](C)(C(=O)O1)[C@H]2[C@@H]3C(=O)O [GA5]
[1]; 0.1 μg compound per seed
  A4922 Height, cm, Heavy soil: 4.3 ghi cm
  A4922 Height, cm, Light soil: 6.0 fgh cm
  No. A4922 Emerged, Heavy soil: 32.3 b-g
  No. A4922 Emerged, Light soil: 51.7 bcd
[1]; 1 μg compound per seed
  A4922 Height, cm, Heavy soil: 7.0 ef cm
  A4922 Height, cm, Light soil: 7.3 fg·cm
  No. A4922 Emerged, Heavy soil: 37.3 b-f
  No. A4922 Emerged, Light soil: 47.3 c-g
[1]; 10 μg compound per seed
  A4922 Height, cm, Heavy soil: 17.3 b cm
  A4922 Height, cm, Light soil: 16.3 c cm
  No. A4922 Emerged, Heavy soil: 32.7 b-g
  No. A4922 Emerged, Light soil: 45.7 c-h
[1]; 100 μg compound per seed
  A4922 Height, cm, Heavy soil: 22.3 a cm
  A4922 Height, cm, Light soil: 29.7 a cm
  No. A4922 Emerged, Heavy soil: 38.3 b-e
  No. A4922 Emerged, Light soil: 46.7 c-g
[2]; [18]
  Count (emergence): 32.0 abc
  Height (total plant height): 5.3 g·cm·days
[2]; [19]
  Count (emergence): 24.7 de
  Height (total plant height): 6.7 bcd cm
[2]; [20]
  Count (emergence): 26.7 b-e
  Height (total plant height): 9.0 a cm
[2]; [21]
  Count (emergence): 13.7 abc
  Height (total plant height): 4.7 cde cm
[2]; [22]
  Count (emergence): 9.0 bcd
  Height (total plant height): 6.7 ab cm
[2]; [23]
  Count (emergence): 6.7 cde
  Height (total plant height): 6.7 ab cm
[2]; [24]
  Count (emergence): 32 abc
  Height (total plant height): 5.3 g·cm·days
[2]; [25]
  Count (emergence): 25 cde
  Height (total plant height): 6.7 bcd cm
[2]; [26]
  Count (emergence): 37 abc
  Height (total plant height): 6.7 cm·days
[2]; [27]
  Count (emergence): 22 de
  Height (total plant height): 9.0 c cm
[2]; [28]
  Count (emergence): 44.7 ab
  Height (total plant height): 6e-15 g·cm
[2]; [29]
  Count (emergence): 41.0 abc
  Height (total plant height): 10.0 bc cm
[2]; [30]
  Count (emergence): 43.3 abc
  Height (total plant height): 12.7 a cm
[2]; [31]
  Count (emergence): 36.7 abc
  Height (total plant height): 6.7 cm·days
[2]; [32]
  Count (emergence): 21.7 de
  Height (total plant height): 9.0 c cm
[2]; [33]
  Count (emergence): 18.7 def
  Height (total plant height): 11.7 a cm
[2]
  plant height dose/response in wild-type line A4922 (FIG. 40): dose/response curves similar to that of GA3
[3]
  effect on line 46 total height: rescued AX5/asCPScc soybean line 46 total height, with some hypocotyl over-elongation
